Data: US20240270762A1, “PENICILLIN-BINDING PROTEIN INHIBITORS” (priority 2021, published 2024)
Values after ≈ are worked out from the molar mass of the structure shown.

Tests used:
A. baumannii CDC-0033 = assay: microbe, parasite or virus in culture; assay type: cell-based; conditions: Acinetobacter baumannii, CDC0033, read-out: MIC, A. baumannii CDC-0033
A. baumannii ATCC 19606 = assay: microbe, parasite or virus in culture; assay type: cell-based; conditions: Acinetobacter baumannii, ATCC19606, read-out: MIC, A. baumannii ATCC 19606
P. aeruginosa CDC-0090 = assay: microbe, parasite or virus in culture; assay type: cell-based; conditions: Pseudomonas aeruginosa, CDC0090, read-out: Minimum inhibitory concentration, P. aeruginosa CDC-0090
A. baumannii CDC-0045 = assay: microbe, parasite or virus in culture; assay type: cell-based; conditions: Acinetobacter baumannii, CDC0045, read-out: MIC, A. baumannii CDC-0045
[1] = system: B. humptydooensis ATCC BAA-2767; assay: microbe, parasite or virus in culture; assay type: cell-based; conditions: Burkholderia humptydooensis, ATCCBAA2767, read-out: Minimum inhibitory concentration (MIC), B. humptydooensis ATCC BAA-2767
P. aeruginosa ATCC 35151 = assay: microbe, parasite or virus in culture; assay type: cell-based; conditions: Pseudomonas aeruginosa, ATCC35151, read-out: Minimum inhibitory concentration, P. aeruginosa ATCC 35151
[2] = target: T1, PBP3 from Escherichia coli (K-12) (Escherichia coli, UniProt P0AD68); assay: Bocillin-FL fluorescence polarization competition binding, E. coli PBP3
T1 construct: made in house
T1 sequence (P0AD68 1-577): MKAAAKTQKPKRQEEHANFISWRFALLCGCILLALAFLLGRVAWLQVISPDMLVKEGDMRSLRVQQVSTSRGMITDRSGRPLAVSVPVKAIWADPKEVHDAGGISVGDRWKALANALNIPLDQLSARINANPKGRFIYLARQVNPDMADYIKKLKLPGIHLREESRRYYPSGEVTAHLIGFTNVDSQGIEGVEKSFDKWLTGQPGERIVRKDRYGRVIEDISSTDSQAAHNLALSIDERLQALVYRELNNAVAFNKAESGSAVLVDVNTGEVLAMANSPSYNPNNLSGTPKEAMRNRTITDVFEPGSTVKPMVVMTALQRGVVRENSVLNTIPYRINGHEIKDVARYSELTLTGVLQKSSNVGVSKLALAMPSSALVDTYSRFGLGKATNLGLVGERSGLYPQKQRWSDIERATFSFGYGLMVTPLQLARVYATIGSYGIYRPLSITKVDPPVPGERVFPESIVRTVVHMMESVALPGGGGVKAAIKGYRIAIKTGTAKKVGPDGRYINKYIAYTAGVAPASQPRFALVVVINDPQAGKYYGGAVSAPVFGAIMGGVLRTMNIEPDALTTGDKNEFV
Summary of the method: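 Purified PBP was preincubated with inhibitor (E. coli PBP3 1.5 μM, 30 min; P. aeruginosa PBP3 0.75 μM, A. baumannii PBP3 0.2 μM and PBP1a 1 μM, 15 min), then Bocillin-FL (0.1 μM; 0.05 μM for PBP1a) added and FP read up to 60 min. EC50 = 50% loss of bound probe.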

P. aeruginosa CDC-0095 = assay: microbe, parasite or virus in culture; assay type: cell-based; conditions: Pseudomonas aeruginosa, CDC0095, read-out: Minimum inhibitory concentration, P. aeruginosa CDC-0095
P. aeruginosa ATCC 27853 = assay: microbe, parasite or virus in culture; assay type: cell-based; conditions: Pseudomonas aeruginosa, ATCC27853, read-out: Minimum inhibitory concentration, P. aeruginosa ATCC 27853
A. baumannii CDC-0083 = assay: microbe, parasite or virus in culture; assay type: cell-based; conditions: Acinetobacter baumannii, CDC0083, read-out: MIC, A. baumannii CDC-0083
[3] = system: B. thailandensis ATCC 700388; assay: microbe, parasite or virus in culture; assay type: cell-based; conditions: Burkholderia thailandensis, ATCC700388, read-out: Minimum inhibitory concentration (MIC), B. thailandensis ATCC 700388
P. aeruginosa CDC-0054 = assay: microbe, parasite or virus in culture; assay type: cell-based; conditions: Pseudomonas aeruginosa, CDC0054, read-out: Minimum inhibitory concentration, P. aeruginosa CDC-0054

Structure (SMILES)	MIC (A. baumannii CDC-0033) [µg/mL]	MIC (A. baumannii ATCC 19606) [µg/mL]	MIC (P. aeruginosa CDC-0090) [µg/mL]	MIC (A. baumannii CDC-0045) [µg/mL]	MIC [1] [µg/mL]	MIC (P. aeruginosa ATCC 35151) [µg/mL]	EC50 [2] [µM]	MIC (P. aeruginosa CDC-0095) [µg/mL]	MIC (P. aeruginosa ATCC 27853) [µg/mL]	MIC (A. baumannii CDC-0083) [µg/mL]	MIC [3] [µg/mL]	MIC (P. aeruginosa CDC-0054) [µg/mL]
O=C(NCCCN1CCN(C(=O)NC(C(=O)N[C@H]2Cc3ccc(F)c(C(=O)O)c3OB2O)c2cc(F)c(O)c(O)c2Cl)C(=O)C1=O)c1ccc(F)c(O)c1Cl (stereo partly drawn) [Example 412, (3R)-3-(2-(4-(3-(2-chloro-4-fluoro-3-hydroxybenzamido)propyl)-2,3-dioxopiperazine-1-carboxamido)-2-(2-chloro-5-fluoro-3,4-dihydroxyphenyl)acetamido)-7-fluoro-2-hydroxy-3,4-dihydro-2H-benzo[e][1,2]oxaborinine-8-carboxylic acid]	8 to 16 (≈ 9.85 to 19.7 µM)	< 1	2 to 4 (≈ 2.46 to 4.92 µM)	2 to 4 (≈ 2.46 to 4.92 µM)	2 to 4 (≈ 2.46 to 4.92 µM)	< 1	< 10	2 to 4 (≈ 2.46 to 4.92 µM)	< 1	8 to 16 (≈ 9.85 to 19.7 µM)	2 to 4 (≈ 2.46 to 4.92 µM)	< 1
O=C(NCCCN1CCN(C(=O)NC(C(=O)N[C@H]2Cc3ccc(F)c(C(=O)O)c3OB2O)c2cc(F)c(O)c(O)c2Cl)C(=O)C1=O)c1c(F)ccc(O)c1F (stereo partly drawn) [Example 413, (3R)-3-(2-(2-chloro-5-fluoro-3,4-dihydroxyphenyl)-2-(4-(3-(2,6-difluoro-3-hydroxybenzamido)propyl)-2,3-dioxopiperazine-1-carboxamido)acetamido)-7-fluoro-2-hydroxy-3,4-dihydro-2H-benzo[e][1,2]oxaborinine-8-carboxylic acid]	2 to 4 (≈ 2.51 to 5.03 µM)	< 1	< 1	2 to 4 (≈ 2.51 to 5.03 µM)	2 to 4 (≈ 2.51 to 5.03 µM)	< 1	< 10	< 1	< 1	2 to 4 (≈ 2.51 to 5.03 µM)	2 to 4 (≈ 2.51 to 5.03 µM)	< 1
O=C(NCCCN1CCN(C(=O)NC(C(=O)N[C@H]2Cc3ccc(F)c(C(=O)O)c3OB2O)c2cc(F)c(O)c(O)c2Cl)C(=O)C1=O)c1c(F)ccc(O)c1Cl (stereo partly drawn) [Example 414, (3R)-3-(2-(2-chloro-5-fluoro-3,4-dihydroxyphenyl)-2-(4-(3-(2-chloro-6-fluoro-3-hydroxybenzamido)propyl)-2,3-dioxopiperazine-1-carboxamido)acetamido)-7-fluoro-2-hydroxy-3,4-dihydro-2H-benzo[e][1,2]oxaborinine-8-carboxylic acid]	2 to 4 (≈ 2.46 to 4.92 µM)	< 1	< 1	2 to 4 (≈ 2.46 to 4.92 µM)	2 to 4 (≈ 2.46 to 4.92 µM)	< 1	< 10	< 1	< 1	2 to 4 (≈ 2.46 to 4.92 µM)	2 to 4 (≈ 2.46 to 4.92 µM)	< 1
O=C(NCCCN1CCN(C(=O)NC(C(=O)N[C@H]2Cc3ccc(F)c(C(=O)O)c3OB2O)c2cc(F)c(O)c(O)c2Cl)C(=O)C1=O)c1cc(O)c(F)c(O)c1F (stereo partly drawn) [Example 415, (3R)-3-(2-(2-chloro-5-fluoro-3,4-dihydroxyphenyl)-2-(4-(3-(2,4-difluoro-3,5-dihydroxybenzamido)propyl)-2,3-dioxopiperazine-1-carboxamido)acetamido)-7-fluoro-2-hydroxy-3,4-dihydro-2H-benzo[e][1,2]oxaborinine-8-carboxylic acid]	2 to 4 (≈ 2.46 to 4.93 µM)	< 1	< 1	2 to 4 (≈ 2.46 to 4.93 µM)	8 to 16 (≈ 9.85 to 19.7 µM)	< 1	10 to 50	< 1	< 1	2 to 4 (≈ 2.46 to 4.93 µM)	8 to 16 (≈ 9.85 to 19.7 µM)	< 1
O=C(NCCCN1CCN(C(=O)NC(C(=O)N[C@H]2Cc3ccc(F)c(C(=O)O)c3OB2O)c2cc(F)c(O)c(O)c2Cl)C(=O)C1=O)c1cc(O)c(F)c(O)c1 (stereo partly drawn) [Example 416, (3R)-3-(2-(2-chloro-5-fluoro-3,4-dihydroxyphenyl)-2-(4-(3-(4-fluoro-3,5-dihydroxybenzamido)propyl)-2,3-dioxopiperazine-1-carboxamido)acetamido)-7-fluoro-2-hydroxy-3,4-dihydro-2H-benzo[e][1,2]oxaborinine-8-carboxylic acid]	2 to 4 (≈ 2.52 to 5.04 µM)	< 1	< 1	< 1	< 1	< 1	< 10	< 1	< 1	< 1	< 1	< 1
O=C(NCCCN1CCN(C(=O)NC(C(=O)N[C@H]2Cc3ccc(F)c(C(=O)O)c3OB2O)c2cc(F)c(O)c(O)c2Cl)C(=O)C1=O)c1ccc(O)c(F)c1Cl (stereo partly drawn) [Example 418, (3R)-3-(2-(4-(3-(2-chloro-3-fluoro-4-hydroxybenzamido)propyl)-2,3-dioxopiperazine-1-carboxamido)-2-(2-chloro-5-fluoro-3,4-dihydroxyphenyl)acetamido)-7-fluoro-2-hydroxy-3,4-dihydro-2H-benzo[e][1,2]oxaborinine-8-carboxylic acid]	< 1	< 1	< 1	< 1	< 1	< 1	< 10	2 to 4 (≈ 2.46 to 4.92 µM)	2 to 4 (≈ 2.46 to 4.92 µM)	> 128	< 1	< 1
O=C(NCCCN1CCN(C(=O)NC(C(=O)N[C@H]2Cc3ccc(F)c(C(=O)O)c3OB2O)c2cc(F)c(O)c(O)c2Cl)C(=O)C1=O)c1ccc(O)c(Cl)c1F (stereo partly drawn) [Example 419, (3R)-3-(2-(4-(3-(3-chloro-2-fluoro-4-hydroxybenzamido)propyl)-2,3-dioxopiperazine-1-carboxamido)-2-(2-chloro-5-fluoro-3,4-dihydroxyphenyl)acetamido)-7-fluoro-2-hydroxy-3,4-dihydro-2H-benzo[e][1,2]oxaborinine-8-carboxylic acid]	8 to 16 (≈ 9.85 to 19.7 µM)	< 1	2 to 4 (≈ 2.46 to 4.92 µM)	2 to 4 (≈ 2.46 to 4.92 µM)	2 to 4 (≈ 2.46 to 4.92 µM)	< 1	< 10	2 to 4 (≈ 2.46 to 4.92 µM)	2 to 4 (≈ 2.46 to 4.92 µM)	> 128	2 to 4 (≈ 2.46 to 4.92 µM)	2 to 4 (≈ 2.46 to 4.92 µM)
O=C(NCCCN1CCN(C(=O)NC(C(=O)N[C@H]2Cc3ccc(F)c(C(=O)O)c3OB2O)c2cc(F)c(O)c(O)c2Cl)C(=O)C1=O)c1c(F)cc(O)cc1Cl (stereo partly drawn) [Example 421, (3R)-3-(2-(2-chloro-5-fluoro-3,4-dihydroxyphenyl)-2-(4-(3-(2-chloro-6-fluoro-4-hydroxybenzamido)propyl)-2,3-dioxopiperazine-1-carboxamido)acetamido)-7-fluoro-2-hydroxy-3,4-dihydro-2H-benzo[e][1,2]oxaborinine-8-carboxylic acid]	2 to 4 (≈ 2.46 to 4.92 µM)	< 1	< 1	< 1	2 to 4 (≈ 2.46 to 4.92 µM)	< 1	< 10	2 to 4 (≈ 2.46 to 4.92 µM)	2 to 4 (≈ 2.46 to 4.92 µM)	> 128	2 to 4 (≈ 2.46 to 4.92 µM)	< 1
O=C(NCCCN1CCN(C(=O)N[C@@H](C(=O)N[C@H]2Cc3ccc(F)c(C(=O)O)c3OB2O)c2cc(F)c(O)c(O)c2Cl)C(=O)C1=O)c1cc(F)c(O)c(F)c1 [Example 422, (R)-3-((R)-2-(2-chloro-5-fluoro-3,4-dihydroxyphenyl)-2-(4-(3-(3,5-difluoro-4-hydroxybenzamido)propyl)-2,3-dioxopiperazine-1-carboxamido)acetamido)-7-fluoro-2-hydroxy-3,4-dihydro-2H-benzo[e][1,2]oxaborinine-8-carboxylic acid]	2 to 4 (≈ 2.51 to 5.03 µM)	< 1	2 to 4 (≈ 2.51 to 5.03 µM)	< 1	< 1	< 1	< 10	< 1	2 to 4 (≈ 2.51 to 5.03 µM)	> 128	< 1	< 1
